Three compounds from ChEMBL document CHEMBL1201862, “PubChem BioAssay data set” (2004) can be followed below.

The structures appear in SMILES notation.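 Cultured in 96-well plates, cells were exposed to test compound for 48 hours across five concentrations. GI50 marks 50% less growth.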 Active and inactive are the calls of the source. No stated cut-off is given here; in the data, active = GI50 up to about 1.1 µM and inactive = higher.

Among the test systems are IGROV-1; SF-539; NCI/ADR-RES; TK-10; SR; UACC-257; SN12C; U-251; COLO 205; HCC 2998; NCI-H460; SK-OV-3; A549; OVCAR-5; SF-295; OVCAR-4; DU-145; NCI-H522; RXF 393; SK-MEL-2.
Experiment in all cases: NCI anticancer screen, dose series, 48 h

Take `O=C1c2ccccc2CC12CCC1(CC2)OCCO1`: the GI50 with IGROV-1, in the test on SF-539, in the test on NCI/ADR-RES, with TK-10, with SR and with UACC-257 was > 100 µM (inactive) each time. Further, the GI50 in the test with SN12C, with U-251, in the test with COLO 205, in the test with HCC 2998, in the test on NCI-H460 and with SK-OV-3 was > 100 µM (inactive) throughout. The GI50 with A549, with OVCAR-5, in the test with SF-295, in the test on OVCAR-4, with DU-145 and in the test on NCI-H522 was > 100 µM (inactive) throughout. For the same compound, the GI50 in the test on RXF 393 and with SK-MEL-2 was > 100 µM (inactive) in each case.

On to `COc1ccc2c(c1)Cc1cc(/N=[N+](\[O-])c3ccc4c(c3)Cc3cc(OC)ccc3-4)ccc1-2`, for which the GI50 in the test with IGROV-1 is 24 µM (inactive); in the test with SF-539, 10.2 µM (inactive); in the test on NCI/ADR-RES, 89.1 µM (inactive); in the test on TK-10, 64.3 µM (inactive); in the test with SR, 16.4 µM (inactive); in the test with UACC-257 it was 12.9 µM (inactive). Besides, the GI50 with SN12C was > 100 µM (inactive); in the test with U-251 it was 16.9 µM (inactive); in the test on COLO 205, 15.3 µM (inactive); in the test on HCC 2998, 14.2 µM (inactive); in the test on NCI-H460, 39.3 µM (inactive); with SK-OV-3, > 100 µM (inactive). The GI50 is 43.1 µM (inactive) with A549; > 100 µM (inactive) with OVCAR-5; 67.3 µM (inactive) in the test on SF-295; 40 µM (inactive) in the test with OVCAR-4; > 100 µM (inactive) in the test on DU-145; 4.78 µM (inactive) in the test on NCI-H522. The GI50 was 57.7 µM (inactive) with RXF 393 and 60 µM (inactive) with SK-MEL-2.

As for `Cn1c2ccccc2c(=O)c2c(O)cc3c(c21)CC(C1(C)CO1)O3` (stereo not given), the GI50 was 5.87 µM (inactive) in the test with IGROV-1; 3.2 µM (inactive) with SF-539; 1.32 µM (inactive) in the test with NCI/ADR-RES; 11.4 µM (inactive) with TK-10; 0.111 µM (active) in the test on SR; 3.93 µM (inactive) in the test with UACC-257. For the same compound, the GI50 in the test with SN12C is 1.42 µM (inactive); in the test on U-251, 3.16 µM (inactive); in the test on COLO 205, 6.1 µM (inactive); in the test on HCC 2998, 1.79 µM (inactive); in the test with NCI-H460, 3.29 µM (inactive); in the test with SK-OV-3 it was 5.53 µM (inactive). Moreover, the GI50 was 5.16 µM (inactive) in the test with A549; 6.53 µM (inactive) in the test with OVCAR-5; 9.44 µM (inactive) with SF-295; 8.83 µM (inactive) with OVCAR-4; 10.7 µM (inactive) with DU-145; 2.93 µM (inactive) with NCI-H522. Further, the values for the GI50 in the test on RXF 393 and with SK-MEL-2 were 1.17 µM (inactive) and 0.887 µM (active), respectively.
